Measured values as given in patent US6376175B1, “Methods of discovering chemicals capable of functioning as gene expression modulators” (OSI Pharmaceuticals, Inc., priority 1989, dated 2002).
Like-named read-outs stand apart in the source and are kept apart here.

How the values were obtained:
secreted G-CSF protein = test: Two-antibody sandwich immunoassay of G-CSF secreted by 5637 bladder carcinoma cells; type: cell-based, human; conditions: 5637 cells, 48 hours, serum-containing media; TNF-alpha 5 ng/ml; #542 50 uM; #1780 1 uM and 0.2 uM; FIG. 55
Protocol: Supernatants from 5637 bladder carcinoma cells incubated with chemicals registering as positives in the G-CSF promoter/luciferase High-Throughput assay were assayed for secreted G-CSF protein using the two-antibody sandwich immunoassay (96). The G-CSF Assay kit manufactured by Oncogene Science, Inc. was used and the manufacturer's instructions were followed.
The levels of G-CSF in the cell supernatants were determined by a sandwich-antibody assay as described in Materials and Methods (FIG. 55).

human G-CSF promoter = type: cell-based; conditions: 7-hour incubation, serum-free media
From the text: A human bladder carcinoma cell line (U5637, ATCC number HTB 9) was used for transfection of plasmids containing the human Granulocyte-Colony Stimulating Factor (G-CSF) promoter (see below) and was maintained in RPMI medium supplemented with 10% FCS. For HTP screening, transfected 5637 clones were transferred to a serum free defined medium identical to that used for the NIH/3T3 clones.
The sequences of OL-1, OL-2 and OL-5 recognize the G-CSF promoter region, OL-4 recognizes the first intron/exon junction and OL-3 recognizes sequences within the second exon (32). One of the clones isolated from the leukocyte library using these oligonucleotide probes contains a 3.5 kb SalI-BamHI fragment of G-CSF genomic sequence consisting of 3.3 kb of promoter sequence and two hundred base pairs of the coding region. This fragment was inserted into the vector pGEM-7-Zf (Promega, Madison, Wis.) which had previously been digested with SalI/BamHI, resulting in the vector pJM710 (FIG. 7). pJM710 was then digested with PstI, and the resulting 1.6 kb fragment containing G-CSF upstream sequences and the first 15 bases of the G-CSF leader sequence was inserted into the PstI site of pGEM5-Luci (FIG. 8) to generate pG-Lucl (FIG. 9). This construct was then used for transfection of 5637 human bladder carcinoma cells as described below in section E3. pGEM5-Luci (FIG. 8) had previously been constructed by inserting the […]/SalI fragment from pSVLuci (FIG. 2) containing the luciferase coding sequence and the SV40 late polyadenylation signal into pGEM 5-Zf (Promega, Madison Wis.) digested with XhoI/SalI.
pG-LUC1 (FIG. 9) and pRSVNeo were co-transfected into 5637 human bladder carcinoma cells as described above. Selection of G418 resistant clones was as described above except for using a concentration of 0.1 mg/ml G418. Analysis of cell clones was performed as above except that a known inducer of G-CSF expression (1-5 µg/ml lipopolysaccharide (LPS), E. coli serotype 055:b5, Difco, Detroit, Mich. or Sigma, St. Louis, Mo.) was used in place of dexamethasone.
Cell plating: Dynatech Microlite 96 well plates were custom pretreated for cell attachment by Dynatech Laboratories, Inc. (Chantilly, Va.). Alternatively, the 96 well plates were treated with 50 µl per well of human fibronectin (hFN, 15 µg/ml in PBS, Collaborative Research, Bedford, Mass.) overnight at 37 C. hFN-treated plates were washed with PBS using an Ultrawash 2 Microplate Washer (Dynatech Labs), to remove excess hFN prior to cell plating. M10, 532, and G21 cells maintained in their respective serum media (with 0.2 mg/ml G418) were washed with PBS, harvested by trypsinization, and counted using a hemocytometer and the Trypan Blue exclusion method according to protocols provided by Sigma, St. Louis, Mo. Chemical Company. Cells were then diluted into serum free defined media (with 0.2 mg/ml G418), and 0.2 ml of cell suspension per well was plated onto Dynatech treated plates (532 and G21) or hFN-treated plates (M10) using a Cetus Pro/Pette (Cetus, Emeryville Calif.). Plates were incubated overnight at 37 C in a humidified 5% CO2 atmosphere.
Addition of Chemicals to Cells: Chemicals from the Oncogene Science file were dissolved in DMSO at concentrations of 3-30 mg/ml. A liquid handling laboratory work station (RSP 5052, Tecan U.S. Chapel Hill, N.C.) was used to dilute the chemicals (three dilutions; 5 fold, 110 fold, and 726 fold). 10 11 of each dilution were added to each of quadruplicate samples of cells contained in the wells of 96-well Dyantech Microlite Plates. […]

Compound | G-CSF secretion into media (secreted G-CSF protein) | increase of luciferase expression directed by the G-CSF promoter, G 21 cells (human G-CSF promoter; absence of EGF) [fold] | increase of luciferase expression directed by the G-CSF promoter, G 21 cells (human G-CSF promoter; presence of EGF) [fold]
TNF-alpha | increased G-CSF secretion | 2.1 | 2.8
CCCCCCCCCCCCCC(=O)O[C@@H]1[C@@H](C)[C@@]2(O)[C@@H](C=C(CO)C[C@]3(O)C(=O)C(C)=C[C@@H]23)[C@@H]2C(C)(C)[C@]12OC(C)=O [PMA, phorbo-myristate-acetate, reference compound] |  | 34.6 | 24.6
